These results are taken from US20040110825A1, “Method for treating sepsis” (priority 2003, published 2004).

Data set [1] has as its system patients with severe sepsis. In words: Phase 2 multicenter, double-blind, placebo-controlled trial: 28-day all-cause mortality. The class given is in vivo, human. Conditions: for effect on mortality compared to placebo: administration started within 24 hours after first organ failure, continued up to 7 days. The protocol: FIG. 3 represents a plot of 28-day mortality by treatment (Y-axis) against time after first organ failure at which a sPLA2 inhibitor compound of formula I was administered (X-axis). […] Administration of a “high dose” of sPLA2 inhibitor compound of formula (I), at the same time frame (i.e., less than 12 hours after first organ failure) was associated with a mortality of 5.4% (bar 3). […] The efficacy of a sPLA2 inhibitor administered at 0-24 hours, preferably 0-12 hours, after first organ failure is particularly significant when a “high dose” sPLA2 inhibitor compound is administered.
The data were analyzed using the Cochran-Mantel-Haenszel test adjusted for the trial primary stratification factors at a two-sided 5% significance level. The overall treatment effect as well as for pair-wise comparisons were analyzed.
Study participants were included in the study if they met all of the criteria listed below. It is anticipated that almost all patients meeting these criteria would have been in an acute care area of the hospital such as an intensive care unit, step-down unit, emergency ward, or recovery room. The events satisfying these inclusion criteria must have been attributable to the onset of sepsis and not attributable to an underlying disease process or to the effects of concomitant therapy.
[3] Have had at least one of the following sepsis-induced organ failures within the 24-hour time period immediately preceding entry into the study:
The mortality data from the study are shown in diagrams 1 through 3.

As for `CCCCCCCCc1cc2c(cc1OCCCP(=O)(O)O)c1c(n2Cc2ccccc2)CCCC1C(N)=O` (stereo not shown), the melting point (commonly the temperature of the solid-liquid transition) is 160 to 162 °C. Same read-out and setting: with `CCc1cc2c(cc1OCCCP(=O)(O)O)c1c(n2Cc2ccccc2)CCCC1C(N)=O` (stereo not shown) the figure was 235 to 238 °C (dec.); with `COc1ccc2c(c1)c1c(n2Cc2ccccc2)CCCC1C(N)=O` (stereo not shown), 154 to 156 °C. On the same count and under the same terms, with `NC(=O)C1CCCc2c1c1cc(OCCCC(=O)O)ccc1n2Cc1ccccc1` (stereo not shown) the figure was 199 to 200 °C; with `NC(=O)C1CCCc2c1c1cc(OCCCP(=O)(O)O)ccc1n2Cc1ccccc1` (stereo not shown), 200 to 201 °C; with `COc1cc(OC)c2c3c(n(Cc4ccccc4)c2c1)CCCC3C(=O)NN` (stereo not shown), 189 to 190 °C. In the case of `CCc1c(C(=O)C(N)=O)c2c(OCC(=O)O)cccc2n1Cc1ccccc1` [compound (Vb)], the “effect on mortality compared to placebo” value is listed as “significant reduction in mortality” in data set [1] and “statistically significant reduction in mortality” in data set [1] (listed as LY315920). Further, the “28 day mortality by treatment” value came to 31.5% in data set [1] (high dose (target 800 ng/mL), administered between 12 and 24 hours after first organ failure, FIG. 3 bar 6, placebo 35.1%); 5.4% in data set [1] (high dose (target plasma concentration 800 ng/mL), administered less than 12 hours after first organ failure, FIG. 3 bar 3, placebo 42.9%); 38.2% in data set [1] (low dose (target 200 ng/mL), administered between 12 and 24 hours after first organ failure, FIG. 3 bar 5, placebo 35.1%); 19.2% in data set [1] (low dose (target plasma concentration 200 ng/mL), administered less than 12 hours after first organ failure, FIG. 3 bar 2, placebo 42.9%). The “reduction in mortality, significance” value in data set [1] (low dose and high dose administered at 0-12 hours after first organ failure, Cochran-Mantel-Haenszel test, two-sided 5%) is recorded as “statistically significant”.
